As usually defined, the Km is the substrate concentration at which the rate is half of its maximum.

The test system of assay [1] is Bradyrhizobium japonicum. In words: Activity at Bradyrhizobium japonicum metallo-beta-lactamase BJP-1.
The test system of assay [2] is Bradyrhizobium japonicum. As to the kind of experiment: Ratio of Kcat to Km for Bradyrhizobium japonicum metallo-beta-lactamase BJP-1.
The subject of assay [3] is Stenotrophomonas maltophilia. In words: Activity at Stenotrophomonas maltophilia 1SML metallo-beta-lactamase L1.
Assay [4] deals with Stenotrophomonas maltophilia. As to the kind of experiment: Ratio of Kcat to Km for Stenotrophomonas maltophilia 1SML metallo-beta-lactamase L1.
Assay [5] relates to Fluoribacter gormanii. As to the kind of experiment: Activity at Fluoribacter gormanii 1K07 metallo-beta-lactamase FEZ-1.
Assay [6] concerns Fluoribacter gormanii. As to the kind of experiment: Ratio of Kcat to Km for Fluoribacter gormanii 1K07 metallo-beta-lactamase FEZ-1.

A value given as a limit tells only on which side of the number the result lay.

Take `C[C@@H](O)[C@H]1C(=O)N2C(C(=O)O)=C(SCCNC=N)C[C@H]12`: the results for the Km (with Bradyrhizobium japonicum [1]; in assay [3]; with Fluoribacter gormanii [5]) were 260 µM, 90 µM and above 1000 µM, respectively. In addition, the kcat/Km in the assay on Bradyrhizobium japonicum [2] worked out at 6 ×10⁴ /M/s; in assay [4] it was 7.3 ×10⁵ /M/s; in the assay on Fluoribacter gormanii [6] it was 2 ×10⁵ /M/s.

On to `CC1(C)S[C@@H]2[C@H](NC(=O)[C@H](C(=O)O)c3ccsc3)C(=O)N2[C@H]1C(=O)O`, for which the Km in assay [3] is 140 µM; in the assay on Fluoribacter gormanii [5] it was above 5000 µM. In addition, the values for the kcat/Km (in assay [4]; in the assay on Fluoribacter gormanii [6]) were 2.7 ×10⁶ /M/s and 1.3 ×10⁴ /M/s, respectively.

With `CCN1CCN(C(=O)N[C@@H](C(=O)N[C@@H]2C(=O)N3[C@@H]2SC(C)(C)[C@@H]3C(=O)O)c2ccccc2)C(=O)C1=O`, the Km in the assay with Bradyrhizobium japonicum [1] turned out to be 700 µM; in assay [3] it was 20 µM; with Fluoribacter gormanii [5], 4200 µM. In addition, the kcat/Km in the assay with Bradyrhizobium japonicum [2] came out at 6.7 ×10⁴ /M/s; in assay [4] it was 7 ×10⁶ /M/s; in the assay with Fluoribacter gormanii [6] it was 1.2 ×10⁴ /M/s.

With `CC1(C)S[C@@H]2[C@H](NC(=O)[C@H](N)c3ccccc3)C(=O)N2[C@H]1C(=O)O`, the Km was 670 µM in the assay on Bradyrhizobium japonicum [1], 40 µM in assay [3] and above 5000 µM with Fluoribacter gormanii [5]. Besides, the kcat/Km with Bradyrhizobium japonicum [2] is 1.9 ×10⁴ /M/s; in assay [4], 4.4 ×10⁶ /M/s; in the assay on Fluoribacter gormanii [6], 1.1 ×10⁴ /M/s.

Source of the values: ChEMBL document CHEMBL1687782, “High-resolution crystal structure of the subclass B3 metallo-beta-lactamase BJP-1: rational basis for substrate specificity and interaction with sulfonamides” (Antimicrob Agents Chemother, 2010).
